From patent US20250308265A1, “METHODS AND SYSTEMS FOR CHARACTERIZING MORPHODYNAMIC PROFILES OF OBJECTS” (The Chancellor, Masters and Scholars of the University of …, priority 2022, published 2025)
Read-outs that look alike come from different tables or passages of the source.

Key:
[1] = tested on: normal patient-derived duodenal organoids; assay: Chemotherapy drug toxicity screen with human duodenum organoids, label-free timelapse imaging analysed by SPOT; conditions: for phenotype cluster frequency over time (stacked barplots): 5 days
Protocol: Organoids were plated onto 96 well plates as follows. Using ice-cold PBS, the organoids were retrieved from the Matrigel and briefly microcentrifuged. To aid organoid dissociation, the pellet was vigorously resuspended in Trypsin and incubated at 37° C. for 10 min to ensure a high degree of dissociation. The organoid fragments were then briefly microcentrifuged and resuspended in 200 μL of Matrigel. The resuspended organoids were then kept on ice to prevent gelation of the Matrigel. Then, 2 μL of the organoid suspension was seeded inside each well. During this process, the organoid-Matrigel mix was resuspended every 12 wells to ensure an even mix. The Matrigel was allowed to gelate at room temperature for 5 min. Once the Matrigel solidified, 100 μL of human organoid medium, pre-warmed at 37° C. to prevent the detachment of the Matrigel, was then overlaid and replaced every 2 days. Once the organoids had grown for 6 days inside the 96-well plate, the medium was removed by inversion and washed with pre-warmed PBS at 37° C. After removing the PBS by inversion, the wells were filled with 100 μL of human organoid medium (HOM) with a titration of chemotherapy drugs. […] These concentrations were based on the previously published screening concentrations (van de Wetering, M. et al. Cell 161, 933-945 (2015)). All drugs were solubilized and diluted with DMSO. The different conditions were filmed on a Nikon microscope for 120 h at a frequency of 1 image per hour with a 2× objective.
Human duodenum organoids were harvested and dissociated into single cells following the passaging procedure described above. Cell pellets were resuspended in 500 μL of PBS. Cells were filtered through the cell strainer (70 μm) and counted with the automated cell counter (BIO-RAD). The appropriate cell dilutions were made in GFR Matrigel. Then, the cells were seeded in a pre-warmed 96-well black tissue culture-treated (TC-treated) sterile microplate (PerkinElmer), and plates were incubated for 10 min in a cell culture incubator at 37° C. and 5% CO2 to solidify the Matrigel. Human duodenum organoid culture media (HOM, Table 9) was added to each well (200 μL) and refreshed every other day. For WNT experiments, before performing timelapse video collection, the HOM media was changed to ENR (EGF, Noggin, R-spondin only) for the ENR imaging conditions. Specifically, group HOM organoids were cultured in HOM culture medium for 14 days. Group ENR+WNT3A (day 3) organoids were under ENR treatment for 3 days and then ENR+Wnt3A for 11 days. Group ENR+WNT3A (day 6) organoids were under ENR treatment for 6 days and then ENR+Wnt3a for the next 8 days. Group ENR+Wnt3A (day 9) organoids were under ENR treatment for 9 days and then under ENR+Wnt3A treatment for 5 days. Group ENR organoids were under ENR treatment for 14 days. All images were acquired using a Nikon TE 2000-E Eclipse inverted microscope, with a 10×/0.3 NA Plan Fluor Ph1 objective. The system was maintained at 37° C. in the presence of 5% CO2. Z-stack images 1000 μm in depth were acquired at 100 μm intervals (11 steps per acquisition) approximately every 60 min for 5 days (chemotherapy drug screen) and 14 days (WNT addition experiments).
Multicellular structures, such as organoids, have emerged as attractive experimental models. Further, the complex spatiotemporal dynamics of organoids are underlined by the cells' genetic makeup, cell/cell interactions, and the constituent cells' responses to environmental perturbations. SPOT's potential was therefore tested to measure the spatiotemporal dynamics of organoids using normal patient-derived duodenal organoids grown in a 96-well plate and imaged label-free. The entire SPOT workflow was applied to measure organoid response to eight chemotherapy drugs at three different concentrations. 60-100 organoids were seeded per well, and all organoids were filmed every hour for 5 days (stage 1).

human duodenum organoids [2] = assay: scRNA-seq of human duodenum organoids (HOM, ENR, ENR+WNT3A); format: cell-based; conditions: restoring WNT3A
Excerpt: Organoids were individually seeded onto a 24-well plate and cultured for 7 days before treatment as described above.
For scRNA-seq, Group HOM was collected after the initial 7 days' culture before further treatment, that is day 0 of the timelapse acquisition. […] Group ENR organoids were under ENR treatment for a total of 3, 6, and 9 days, respectively, then collected. After being harvested, the organoids were processed in the same manner as for murine organoids.
To understand the molecular basis of WNT depletion-induced morphodynamic changes, scRNA-seq was also performed on the human duodenum organoids cultured under conditions and timescales identical to those used for the SPOT analysis. In total, 8763 single cell transcriptomes were generated. […] Examining the expression of WNT, YAP targets, fetal and RSC signatures in organoid-derived cells as a function of the time of WNT3A rescue, it is evident that there is an inverse association between high WNT and high YAP target-expressing cells. Also, the kinetics of RSC signature expression levels coincide with the extent of phenotypic changes detected by SPOT. Thus, WNT-deprived ENR medium induces RSCs that lead to the development of morphologically irregular and flattened organoids.

human duodenum organoids [3] = assay: Delayed WNT3A restoration to ENR-cultured human duodenum organoids, timelapse imaging analysed by SPOT; format: cell-based
Protocol: Cell pellets were resuspended in 500 μL of PBS. […] The appropriate cell dilutions were made in GFR Matrigel.
The observed flattening phenotype is visually reminiscent of Apc^min/+ murine colon organoids. However, the role of WNT on the morphodynamic changes of human organoids was unexpected. Whereas Apc^min/+ organoids should have high WNT signaling, ENR medium lacks WNT. To test the direct impact of WNT on the morphological changes of human duodenum organoids, WNT3A, a potent inducer of WNT signaling, was added to the ENR medium at day 3, 6, and 9 after the initial transfer of human duodenum organoids to ENR. […] To quantify the impact of WNT3A restoration, all organoids were grown in 96-well plates for 7 days, and live-cell images were captured every hour for the next 14 days (FIG. 5c). The spatiotemporal dynamics of a library of >500,000 segmented organoid instances over all timepoints and videos were analyzed by SPOT in the same manner as mouse colon organoids, and the organoids were subsequently classified into one of 7 phenotype clusters. Quantifying the expression of representative SAM features, as expected, organoids cultured in HOM were large and spherical, shown by enriched distribution of yellow cluster 6.

O=c1[nH]cc(F)c(=O)[nH]1 [5-fluorouracil]
relative toxicity [1]: lower relative toxicity
temporal phenotype trajectory [1]: milder toxicity
phenotype cluster frequency over time (stacked barplots) [1]: approximately maintain the fraction of the cluster 2 large spherical organoid phenotype

CC(=O)O[C@@]12CO[C@@H]1C[C@H](O)[C@@]1(C)C(=O)[C@H](O)C3=C(C)[C@@H](OC(=O)[C@H](O)[C@@H](NC(=O)OC(C)(C)C)c4ccccc4)C[C@@](O)([C@@H](OC(=O)c4ccccc4)[C@H]21)C3(C)C [docetaxel, Docetaxel]
HMM cluster transition pattern [1]: conserved cluster transition pattern

COc1cccc2c1C(=O)c1c(O)c3c(c(O)c1C2=O)C[C@@](O)(C(=O)CO)C[C@@H]3O[C@H]1C[C@H](N)[C@@H](O)[C@H](C)O1 [epirubicin, Epirubicin]
HMM cluster transition pattern [1]: conserved cluster transition pattern
temporal phenotype trajectory [1]: opposing trajectory from top to bottom

COc1cc2ncnc(Nc3ccc(F)c(Cl)c3)c2cc1OCCCN1CCOCC1 [gefitinib, Gefitinib]
relative toxicity [1]: lower relative toxicity
temporal phenotype trajectory [1]: milder toxicity
phenotype cluster frequency over time (stacked barplots) [1]: approximately maintain the fraction of the cluster 2 large spherical organoid phenotype

CCc1c2c(nc3ccc(OC(=O)N4CCC(N5CCCCC5)CC4)cc13)-c1cc3c(c(=O)n1C2)COC(=O)[C@]3(O)CC [irinotecan, Irinotecan]
HMM cluster transition pattern [1]: loses the autoregulatory loop of cluster 2
temporal phenotype trajectory [1]: opposing trajectory from top to bottom

O=C1[O][Pt]2([NH][C@@H]3CCCC[C@H]3[NH]2)[O]C1=O [oxaliplatin, Oxaliplatin]
impact on organoid morphology (UMAP density heatmaps) ([1]; all three concentrations, highest: cisplatin 6, oxaliplatin 20, mitomycin C 0.03, 5-fluorouracil 20, gefitinib 0.5, irinotecan 5, docetaxel 0.0125, epirubicin 4.5 μM, vs DMSO control): limited impact on organoid morphology
temporal phenotype trajectory ([1]; compared with DMSO trajectory): Predominant organoid growth
relative toxicity ([1]; final timepoints, maximum concentration, 5 days filming): lower relative toxicity

B1: WNT3A: a potent inducer of WNT signaling, added to the ENR medium (protein, UniProt P56704 19-352, looked up)
Protein Wnt-3a: SYPIWWSLAVGPQYSSLGSQPILCASIPGLVPKQLRFCRNYVEIMPSVAEGIKIGIQECQHQFRGRRWNCTTVHDSLAIFGPVLDKATRESAFVHAIASAGVAFAVTRSCAEGTAAICGCSSRHQGSPGKGWKWGGCSEDIEFGGMVSREFADARENRPDARSAMNRHNNEAGRQAIASHMHLKCKCHGLSGSCEVKTCWWSQPDFRAIGDFLKDKYDSASEMVVEKHRESRGWVETLRPRYTYFKVPTERDLVYYEASPNFCEPNPETGSFGTRDRTCNVSSHGIDGCDLLCCGRGHNARAERRREKCRCVFHWCCYVSCQECTRVYDVHTCK
induction of RSCs leading to morphologically irregular and flattened organoids in WNT-deprived ENR medium (human duodenum organoids [2]): can be prevented
impact on phenotype rescue (proportion of irregularly shaped to spherical organoids) (human duodenum organoids [3]; WNT3A restored on day 3): biggest impact
organoid growth (cluster 6) (human duodenum organoids [3]; WNT3A restored on day 3): increased
percentage of irregularly shaped organoids (cluster 7) (human duodenum organoids [3]; WNT3A restored on day 3): substantially reduced
temporal phenotype trajectory (human duodenum organoids [3]; WNT3A restored on day 3): close overlap between day 3 WNT3A restoration and HOM conditions
HMM cluster transition graph (human duodenum organoids [3]; WNT3A restored on day 6): best reflects the ENR-only condition
impact on phenotype rescue (proportion of irregularly shaped to spherical organoids) (human duodenum organoids [3]; WNT3A restored on day 6): little impact
HMM cluster transition graph (human duodenum organoids [3]; WNT3A restored on day 9): introduces two new transitions, cluster 5-to-3 and cluster 4-to-2
impact on phenotype rescue (proportion of irregularly shaped to spherical organoids) (human duodenum organoids [3]; WNT3A restored on day 9): minimal impact
formation of morphologically flattened irregular organoids (human duodenum organoids [3]; WNT3A restored to ENR medium at day 3): largely prevented
